We go through two compounds from US20130296392A1, “METHODS FOR THE TREATMENT OF OVERACTIVE BLADDER” (THERAVIDA, INC., priority 2012, published 2013).

The subject of experiment [1] is healthy individuals. Put plainly: Stimulated salivary flow (SSF), change from pre-dose baseline. It is filed as in vivo, human. How it is done: Stimulated salivary flow (SSF) and dry mouth (assessed using a “visual analog scale,” or VAS) were determined at frequent intervals after administration of each treatment. Urine frequency, urine volume/void, and fluid volume consumed were also assessed for each treatment. […] SSF was measured in the following manner. […] The subject may have expectorated saliva in the containers several times if there was excessive saliva. The SSF values were tabulated at each time point and descriptive statistics were generated by treatment, for measured values and changes from pre-dose baseline. Total weight of saliva over time was analyzed using analysis of variance, with Tukey's method of comparison between treatments. Dry mouth was tabulated at each time point and descriptive statistics were generated by treatment, for measured values and changes from pre-dose baseline. Urine frequency, urine volume/void and fluid volume consumed were tabulated and summarized by treatment.

The subject of experiment [2] is healthy individuals. Put plainly: Dry mouth assessment by visual analog scale (VAS). Format: in vivo, human. Particulars: for Change from Baseline of Dry Mouth Assessment (VAS), Mean: VAS 0=not dry, 10=very dry. Here is the method:
Stimulated salivary flow (SSF) and dry mouth (assessed using a “visual analog scale,” or VAS) were determined at frequent intervals after administration of each treatment. Urine frequency, urine volume/void, and fluid volume consumed were also assessed for each treatment.
The SSF values were tabulated at each time point and descriptive statistics were generated by treatment, for measured values and changes from pre-dose baseline. Total weight of saliva over time was analyzed using analysis of variance, with Tukey's method of comparison between treatments. Dry mouth was tabulated at each time point and descriptive statistics were generated by treatment, for measured values and changes from pre-dose baseline. Urine frequency, urine volume/void and fluid volume consumed were tabulated and summarized by treatment.
For qualitative assessment of dry mouth, the “visual analog scale,” or VAS, scale (0=not dry, 10=very dry, measured in centimeters) was used. Each subject was asked to mark a vertical line the VAS scale on how dry their mouth was at that moment.
VAS is a well-known method. In this method, subjects were shown a line scaled from 0 to 10 cm. Subjects were asked to rate the subjective criterion from 0-10 cm and make a mark on the line corresponding to their rating. For example, subjects were told that 0 cm on the line means no dry mouth at all and 10 cm on the line means extreme dry mouth. The subjects rated their extent of dry mouth on the line. Changes in the extent of dry mouth of a subject were measured using this technique throughout the treatment period.

Each structure is given as a SMILES string.

As to `Cc1ccc(O)c([C@H](CCN(C(C)C)C(C)C)c2ccccc2)c1` [Treatment A, tolterodine], the “Mean SSF Change from Pre-dose Baseline” value was -0.3 g in the experiment with healthy individuals [1] (1 hour post-dose); -0.42 g with healthy individuals [1] (2 hours post-dose); -0.28 g in the experiment on healthy individuals [1] (3 hours post-dose); 0.05 g in the experiment with healthy individuals [1] (4 hours post-dose); 0.21 g in the experiment with healthy individuals [1] (6 hours post-dose); -0.06 g with healthy individuals [1] (9 hours post-dose). Also, in the experiment on healthy individuals [1] (12 hours post-dose), the “Mean SSF Change from Pre-dose Baseline” value stood at 0.27 g. Besides, in the experiment with healthy individuals [1] (compared with placebo and pilocarpine alone (Treatment B)), the “SSF after administration, in words” value is reported as “decrease in SSF”. The “Change from Baseline of Dry Mouth Assessment (VAS), Mean” value with healthy individuals [2] (1 hour post-dose) stood at 0.03 cm; with healthy individuals [2] (2 hours post-dose) it was 0.63 cm; in the experiment with healthy individuals [2] (3 hours post-dose), 0.97 cm; with healthy individuals [2] (4 hours post-dose), 0.56 cm; in the experiment on healthy individuals [2] (6 hours post-dose) it was 0.00 cm; in the experiment on healthy individuals [2] ([…] post-dose) it was 0.56 cm.
For `CC[C@@H]1C(=O)OC[C@@H]1Cc1cncn1C` [Treatment B, pilocarpine], the “Mean SSF Change from Pre-dose Baseline” value was 4.55 g with healthy individuals [1] (1 hour post-dose); 2.33 g in the experiment with healthy individuals [1] (2 hours post-dose); 1.07 g in the experiment on healthy individuals [1] (3 hours post-dose); 0.64 g with healthy individuals [1] (4 hours post-dose); 0.32 g in the experiment with healthy individuals [1] (6 hours post-dose); -0.20 g in the experiment with healthy individuals [1] (9 hours post-dose). In addition, the “Mean SSF Change from Pre-dose Baseline” value in the experiment on healthy individuals [1] (12 hours post-dose) was -0.08 g. For the same compound, the “Mean VAS scores of dry mouth over time” value in the experiment with healthy individuals [2] (1 hour and 2 hour time points, compared with each of the other treatments) is on record as “markedly lower”. The “Change from Baseline of Dry Mouth Assessment (VAS), Mean” value with healthy individuals [2] (1 hour post-dose) is listed as −3.00 cm; in the experiment with healthy individuals [2] (2 hours post-dose) it was −2.34 cm; in the experiment on healthy individuals [2] (3 hours post-dose), −0.94 cm; in the experiment on healthy individuals [2] (4 hours post-dose), −0.69 cm; in the experiment with healthy individuals [2] (6 hours post-dose) it was −0.41 cm; in the experiment with healthy individuals [2] ([…] post-dose), −1.38 cm.
